# Experimental data from patent US6548062B2, “Method of treating cancer with anti-neurotrophin agents” (Cephalon, Inc., priority 2000, dated 2003).
# What was measured:
# [1] = system: CFPAC human pancreatic carcinoma cells; conditions: previously published data; cited from earlier work
# [2] = system: TSU-Pr1 human prostate tumor cells; test: TSU-Pr1 prostate cancer xenograft growth in nude mice; type: in vivo; conditions: Experiment #1
# Protocol: (§1) TSU-Pr1 human prostate tumor cells were injected subcutaneously into the flank of female athymic nude mice (nu/nu; 5×10^6 cells/mice). Upon xenografts reaching 100-500 mm^3, the mice were randomized and divided into four experimental groups. One group was administered a cocktail of neurotrophin antibodies (anti-NGF, BDNF, NT-3, and NT4/5). Each dose of antibody cocktail (100 μl) contained 100 μg of each neurotrophin antibody. The second experimental group was administered normal rabbit IgG (400 μg/100 μl; PeproTech 500-P00) as a control. All antibodies were administered intratumorally (50 μl) at five injection sites and peritumorally (50 μl) at five injection sites. […] Tumor length and width were measured every two to three days (Days 1, 3, 5, 8, 10, 12, and 15).
# The fourth experimental group received vehicle only (100 μl) according to the dosing schedule of the third experimental group. Tumor length and width were measured every two to three days (Days 1, 3, 5, 8, 10, 12, and 15).
# Tumor volumes were calculated as described above. The mean tumor volumes and standard errors were calculated as described above. […] Probability values were calculated as described above. […]
# Tumor volumes were calculated as described above. The mean tumor volumes and standard errors were also calculated as described above. […] Probability values were calculated as described above.
# [3] = system: AsPC-1 human pancreatic tumor cells; test: AsPC-1 pancreatic cancer xenograft growth in nude mice; type: in vivo
# Protocol: as §1, with “AsPC-1” for “TSU-Pr1”, “pancreatic” for “prostate”, “15). […]” for “15).”
# Tumor volumes were calculated as described above. The mean tumor volumes and standard errors were also calculated as described above. […] Probability values were calculated as described above. […]
# Tumors were measured every 2-4 days using a vernier caliper. Tumor volumes were calculated as described above. The mean tumor volumes and standard errors were also calculated as described above. […] Statistical analyses were calculated as described above with p≦0.05 deemed significant. […]
# [4] = system: AsPC-1 human pancreatic tumor cells; conditions: previously published data; cited from earlier work
# trkA = trkA (Homo sapiens, UniProt P04629); conditions: ELISA (stated for CEP-751); read-out: IC50 trkA inhibition; cited from earlier work
# [5] = system: PC-3 human prostate tumor cells; test: PC-3 prostate cancer xenograft growth in nude mice; type: in vivo, human tumor cells in athymic nude mice; conditions: 10 mg/kg s.c. BID
# Protocol: PC-3 human prostate tumor cells (5×10^6 cells/mice) were injected subcutaneously into the flank of eight to ten week old, female athymic nude mice (nu/nu; Charles River, Raleigh, N.C.). Mice weighed between 22-25 grams on the day of tumor implantation. Upon xenografts reaching 100-500 mm^3, the mice were randomized and divided into experimental groups. Some experimental groups were administered a cocktail of neurotrophin antibodies (4×25 μg each, or 4×100 μg each of anti-NGF, BDNF, NT-3, and NT4/5) or normal rabbit IgG (100 μg or 400 μg; PeproTech 500-P00) in sterile 1×PBS (total volume of 100 μl). All antibodies were administered intratumorally (50 μl) at five injection sites and peritumorally, subcutaneously (50 μl) at five injection sites. […] Tumor length and width were measured every two to three days. […] Tumor length and width were measured every two to three days (days 1, 3, 5, 8, 10, 12, 15, 17, 19 and 22).
# Tumor volumes were calculated as (length×width (length+width)/2))×0.526 (Isaacs, Canc. […] The mean tumor volumes and standard errors were calculated (SigmaStat, Jandel Scientific, San Rafel, Calif.). […] Relative tumor volumes were calculated as (mean vt mean vo), where vt refers to tumor volume on a given day and vo is the volume of the same tumor at initiation of dosing (day 1). […] Probability values were calculated by the Mann-Whitney Rank Sum Test (SigmaStat).
# Chain of trkA (P04629 33-796, species assumed): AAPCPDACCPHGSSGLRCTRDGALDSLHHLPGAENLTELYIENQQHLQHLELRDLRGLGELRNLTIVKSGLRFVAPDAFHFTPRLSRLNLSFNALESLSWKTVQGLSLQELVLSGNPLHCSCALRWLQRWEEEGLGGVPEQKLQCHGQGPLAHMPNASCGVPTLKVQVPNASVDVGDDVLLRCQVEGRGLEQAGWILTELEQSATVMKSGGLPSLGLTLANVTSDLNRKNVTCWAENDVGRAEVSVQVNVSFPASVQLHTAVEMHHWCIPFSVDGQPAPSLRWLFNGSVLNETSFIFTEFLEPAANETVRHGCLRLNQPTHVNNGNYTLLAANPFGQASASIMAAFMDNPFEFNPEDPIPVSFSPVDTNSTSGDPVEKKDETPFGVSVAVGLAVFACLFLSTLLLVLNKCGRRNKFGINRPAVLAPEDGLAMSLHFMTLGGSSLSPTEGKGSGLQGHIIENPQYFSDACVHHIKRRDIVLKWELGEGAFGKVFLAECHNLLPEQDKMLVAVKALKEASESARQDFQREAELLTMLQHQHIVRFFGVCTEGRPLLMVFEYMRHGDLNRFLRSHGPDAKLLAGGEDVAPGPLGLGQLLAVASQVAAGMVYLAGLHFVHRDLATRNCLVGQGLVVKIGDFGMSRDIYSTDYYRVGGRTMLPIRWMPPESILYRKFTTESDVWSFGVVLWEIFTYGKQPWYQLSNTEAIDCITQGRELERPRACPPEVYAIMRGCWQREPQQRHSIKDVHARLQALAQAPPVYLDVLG
Compound,CFPAC tumor growth [1],"Minimum T/C (absolute tumor volumes vs vehicle control) ([2]; 10 mg/kg sc BID, Days 12 and 15)",Tolerability (deaths or morbidity) ([2]; nude mice bearing TSU-Pr1 xenografts),"Minimum T/C (absolute tumor volumes vs vehicle control) ([3]; 10 mg/kg sc BID, Day 15)",Tolerability (deaths or morbidity) ([3]; nude mice bearing AsPC-1 xenografts),Growth of AsPC-1 tumors [4],IC50 (trkA) [nM],Growth of PC-3 tumors relative to vehicle control ([5]; 22 days),Minimum T/C (absolute tumor volumes vs vehicle control) ([5]; day 19)
C[C@]12O[C@H](C[C@]1(O)CO)n1c3ccccc3c3c4c(c5c6ccccc6n2c5c31)CNC4=O [CEP-701],insensitive,0.29,well tolerated,0.27,well tolerated,inhibited,–,–,–
CO[C@]1(CO)C[C@H]2O[C@]1(C)n1c3ccccc3c3c4c(c5c6ccccc6n2c5c31)C(=O)NC4 [CEP-751],–,–,–,–,–,–,3,inhibited the growth of PC-3 tumors,0.44
